Columns and labels:
Assay type in all cases: cell-based, Murine
[1] = biological target: HER2 wild type Ba/F3 cell line (Homo sapiens, UniProt P04626); experiment: Ba/F3 cell proliferation MTS assay, HER2 wild type; details: HER2 wild type Ba/F3 cells, 72 hours
Procedure: (§1) Murine Ba/F3 cells engineered to express mutant and wild type EGFR or HER2 protein were used to perform single drug screens. Cell viability was assessed after 72 hours of compound exposure using the colorimetric cell proliferation MTS assay kit (Promega).
(§2) The curves were fitted using a non-linear regression model with a sigmoidal dose response.

[2] = biological target: EGFR InsSVD Ba/F3 cell line (Homo sapiens, UniProt P00533, DUP768-770, cells depend on it); experiment: Ba/F3 cell proliferation MTS assay, EGFR InsSVD; details: EGFR InsSVD (D770_N771insSVD) Ba/F3 cells, 72 hours
Procedure: (§3) Different EGFR exon 20 insertion mutations were introduced via site directed mutagenesis into full length EGFR using the Quick Change Site-Directed Mutagenesis kit (Stratagene; La Jolla, Calif.) according to the manufacturer's instructions. All constructs were confirmed by DNA sequencing. The constructs were shuttled into the retroviral vector JP1540 using the BD Creator™ System (BD Biosciences). […] Stable clones were obtained by selection in puromycin (2 μg/ml) and growth in IL-3 free media.
as §1, §2

[3] = biological target: EGFR InsASV Ba/F3 cell line (Homo sapiens, UniProt P00533, DUP767-769, cells depend on it); experiment: Ba/F3 cell proliferation MTS assay, EGFR InsASV; details: EGFR InsASV (V769_D770insASV) Ba/F3 cells, 72 hours
Procedure: as §3, §1, §2

[4] = biological target: EGFR InsGY Ba/F3 cell line (Homo sapiens, UniProt P00533, DELINS770-770GY, cells depend on it); experiment: Ba/F3 cell proliferation MTS assay, EGFR InsGY; details: EGFR InsGY (D770delinsGY) Ba/F3 cells, 72 hours
Procedure: as §3, §1, §2

[5] = biological target: EGFR wild type Ba/F3 cell line (Homo sapiens, UniProt P00533, cells depend on it, form not given); experiment: Ba/F3 cell proliferation MTS assay, EGFR wild type; details: 72 hours
[6] = biological target: HER2 InsYVMA Ba/F3 cell line (Homo sapiens, UniProt P04626, DUP772-775, cells depend on it); experiment: Ba/F3 cell proliferation MTS assay, HER2 InsYVMA; details: 72 hours;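 also: murine Ba/F3 cells engineered to carry mutant HER2, viability read colorimetrically by MTS after 72 h of exposure, EC50 from sigmoidal non-linear regression of dose response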
Sequence of HER2 InsYVMA Ba/F3 cell line (P04626 with tags, fused parts or gaps DUP772-775): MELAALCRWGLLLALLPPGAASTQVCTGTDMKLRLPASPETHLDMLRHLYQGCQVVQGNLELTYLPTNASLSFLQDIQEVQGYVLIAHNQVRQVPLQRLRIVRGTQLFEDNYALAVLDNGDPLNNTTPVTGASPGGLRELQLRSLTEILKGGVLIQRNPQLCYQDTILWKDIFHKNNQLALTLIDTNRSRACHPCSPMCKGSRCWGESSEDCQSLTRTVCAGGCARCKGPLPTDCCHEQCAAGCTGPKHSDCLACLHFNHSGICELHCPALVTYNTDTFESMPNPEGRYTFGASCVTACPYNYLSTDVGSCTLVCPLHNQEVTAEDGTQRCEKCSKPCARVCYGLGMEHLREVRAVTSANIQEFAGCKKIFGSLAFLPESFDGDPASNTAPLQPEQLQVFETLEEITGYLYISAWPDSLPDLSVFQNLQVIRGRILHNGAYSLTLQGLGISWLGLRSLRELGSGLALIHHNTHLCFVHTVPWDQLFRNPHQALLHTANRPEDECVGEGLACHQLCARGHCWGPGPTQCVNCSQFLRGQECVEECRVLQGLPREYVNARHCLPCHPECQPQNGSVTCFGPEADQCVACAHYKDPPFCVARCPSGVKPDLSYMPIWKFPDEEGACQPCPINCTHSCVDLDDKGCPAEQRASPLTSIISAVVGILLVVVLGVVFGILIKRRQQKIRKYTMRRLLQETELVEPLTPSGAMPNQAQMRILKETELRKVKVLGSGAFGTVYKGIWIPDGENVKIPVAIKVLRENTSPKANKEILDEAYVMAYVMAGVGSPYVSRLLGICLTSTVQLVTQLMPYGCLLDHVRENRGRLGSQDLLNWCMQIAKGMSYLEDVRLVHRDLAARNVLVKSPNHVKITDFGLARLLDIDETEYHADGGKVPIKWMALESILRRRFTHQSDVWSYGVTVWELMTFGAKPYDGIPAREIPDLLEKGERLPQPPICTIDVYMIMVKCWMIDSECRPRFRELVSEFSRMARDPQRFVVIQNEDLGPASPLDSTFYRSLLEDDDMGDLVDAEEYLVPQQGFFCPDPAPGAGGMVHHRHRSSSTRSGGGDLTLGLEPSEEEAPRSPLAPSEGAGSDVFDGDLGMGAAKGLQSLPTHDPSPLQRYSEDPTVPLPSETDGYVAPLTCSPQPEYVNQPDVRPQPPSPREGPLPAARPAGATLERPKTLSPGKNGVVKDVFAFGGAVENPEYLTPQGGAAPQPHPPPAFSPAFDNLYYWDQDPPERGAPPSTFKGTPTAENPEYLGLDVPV
Procedure: as §1, §2

Sequence of HER2 wild type Ba/F3 cell line (P04626 whole entry, stated change not applied): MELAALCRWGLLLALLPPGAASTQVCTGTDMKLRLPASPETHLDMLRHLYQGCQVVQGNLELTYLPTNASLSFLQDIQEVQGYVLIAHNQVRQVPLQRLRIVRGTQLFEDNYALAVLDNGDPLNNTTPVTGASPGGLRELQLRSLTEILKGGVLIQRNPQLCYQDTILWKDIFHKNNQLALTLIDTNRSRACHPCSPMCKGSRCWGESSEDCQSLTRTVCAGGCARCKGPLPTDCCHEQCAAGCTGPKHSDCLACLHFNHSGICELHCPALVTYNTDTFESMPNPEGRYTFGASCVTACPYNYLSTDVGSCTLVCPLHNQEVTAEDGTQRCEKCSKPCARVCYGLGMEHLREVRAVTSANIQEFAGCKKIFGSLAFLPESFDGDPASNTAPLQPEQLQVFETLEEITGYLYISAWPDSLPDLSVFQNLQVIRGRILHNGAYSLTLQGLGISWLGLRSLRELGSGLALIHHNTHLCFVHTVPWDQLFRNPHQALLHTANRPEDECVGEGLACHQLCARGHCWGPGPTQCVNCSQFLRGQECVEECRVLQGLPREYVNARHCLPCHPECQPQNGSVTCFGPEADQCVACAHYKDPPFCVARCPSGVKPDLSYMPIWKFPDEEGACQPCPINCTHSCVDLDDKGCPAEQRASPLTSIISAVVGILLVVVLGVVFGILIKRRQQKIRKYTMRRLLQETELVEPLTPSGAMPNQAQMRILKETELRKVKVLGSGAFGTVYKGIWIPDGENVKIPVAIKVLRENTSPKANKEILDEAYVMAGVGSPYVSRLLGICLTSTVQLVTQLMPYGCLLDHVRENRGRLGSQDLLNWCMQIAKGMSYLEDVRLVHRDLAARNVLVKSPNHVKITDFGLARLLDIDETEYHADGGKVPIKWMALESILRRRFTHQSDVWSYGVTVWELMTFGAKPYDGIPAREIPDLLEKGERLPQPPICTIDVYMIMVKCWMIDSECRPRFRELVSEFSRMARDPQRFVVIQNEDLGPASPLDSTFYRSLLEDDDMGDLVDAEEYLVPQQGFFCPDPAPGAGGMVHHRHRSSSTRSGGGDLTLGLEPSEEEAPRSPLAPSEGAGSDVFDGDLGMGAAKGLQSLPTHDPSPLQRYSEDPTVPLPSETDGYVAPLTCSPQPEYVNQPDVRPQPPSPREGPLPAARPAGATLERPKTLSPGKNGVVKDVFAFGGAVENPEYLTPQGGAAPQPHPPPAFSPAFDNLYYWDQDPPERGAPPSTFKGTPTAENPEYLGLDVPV
Sequence of EGFR wild type Ba/F3 cell line (P00533 whole entry, stated change not applied): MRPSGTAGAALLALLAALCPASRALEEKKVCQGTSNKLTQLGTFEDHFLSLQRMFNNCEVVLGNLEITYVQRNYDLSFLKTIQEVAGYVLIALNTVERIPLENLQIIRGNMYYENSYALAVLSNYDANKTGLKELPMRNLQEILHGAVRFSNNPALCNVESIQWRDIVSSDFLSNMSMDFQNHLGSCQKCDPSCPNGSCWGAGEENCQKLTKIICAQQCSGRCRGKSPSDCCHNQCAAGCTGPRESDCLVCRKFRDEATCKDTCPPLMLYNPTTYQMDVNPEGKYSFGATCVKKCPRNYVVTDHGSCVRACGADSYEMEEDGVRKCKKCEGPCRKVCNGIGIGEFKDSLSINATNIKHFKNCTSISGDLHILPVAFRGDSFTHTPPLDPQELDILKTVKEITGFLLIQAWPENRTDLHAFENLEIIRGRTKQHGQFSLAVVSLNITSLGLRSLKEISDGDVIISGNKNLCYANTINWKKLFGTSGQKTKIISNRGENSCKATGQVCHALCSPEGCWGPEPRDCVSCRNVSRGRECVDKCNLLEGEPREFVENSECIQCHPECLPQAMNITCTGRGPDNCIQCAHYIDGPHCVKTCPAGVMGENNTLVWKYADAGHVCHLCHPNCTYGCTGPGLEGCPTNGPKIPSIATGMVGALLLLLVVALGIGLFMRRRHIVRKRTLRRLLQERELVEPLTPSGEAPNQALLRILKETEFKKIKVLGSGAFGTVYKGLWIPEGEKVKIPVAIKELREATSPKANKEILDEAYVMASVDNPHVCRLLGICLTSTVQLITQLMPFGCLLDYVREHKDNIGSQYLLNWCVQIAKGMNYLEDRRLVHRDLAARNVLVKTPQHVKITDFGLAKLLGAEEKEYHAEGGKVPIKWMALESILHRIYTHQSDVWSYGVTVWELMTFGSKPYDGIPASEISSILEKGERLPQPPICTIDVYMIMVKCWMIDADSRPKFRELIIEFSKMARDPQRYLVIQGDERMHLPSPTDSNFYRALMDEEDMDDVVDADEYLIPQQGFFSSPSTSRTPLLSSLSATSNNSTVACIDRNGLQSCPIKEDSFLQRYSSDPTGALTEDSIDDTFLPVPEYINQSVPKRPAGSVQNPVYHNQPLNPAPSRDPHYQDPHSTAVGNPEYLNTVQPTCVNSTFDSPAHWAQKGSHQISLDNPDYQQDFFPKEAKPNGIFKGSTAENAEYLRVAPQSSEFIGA
Sequence of EGFR InsGY Ba/F3 cell line (P00533 with tags, fused parts or gaps DELINS770-770GY): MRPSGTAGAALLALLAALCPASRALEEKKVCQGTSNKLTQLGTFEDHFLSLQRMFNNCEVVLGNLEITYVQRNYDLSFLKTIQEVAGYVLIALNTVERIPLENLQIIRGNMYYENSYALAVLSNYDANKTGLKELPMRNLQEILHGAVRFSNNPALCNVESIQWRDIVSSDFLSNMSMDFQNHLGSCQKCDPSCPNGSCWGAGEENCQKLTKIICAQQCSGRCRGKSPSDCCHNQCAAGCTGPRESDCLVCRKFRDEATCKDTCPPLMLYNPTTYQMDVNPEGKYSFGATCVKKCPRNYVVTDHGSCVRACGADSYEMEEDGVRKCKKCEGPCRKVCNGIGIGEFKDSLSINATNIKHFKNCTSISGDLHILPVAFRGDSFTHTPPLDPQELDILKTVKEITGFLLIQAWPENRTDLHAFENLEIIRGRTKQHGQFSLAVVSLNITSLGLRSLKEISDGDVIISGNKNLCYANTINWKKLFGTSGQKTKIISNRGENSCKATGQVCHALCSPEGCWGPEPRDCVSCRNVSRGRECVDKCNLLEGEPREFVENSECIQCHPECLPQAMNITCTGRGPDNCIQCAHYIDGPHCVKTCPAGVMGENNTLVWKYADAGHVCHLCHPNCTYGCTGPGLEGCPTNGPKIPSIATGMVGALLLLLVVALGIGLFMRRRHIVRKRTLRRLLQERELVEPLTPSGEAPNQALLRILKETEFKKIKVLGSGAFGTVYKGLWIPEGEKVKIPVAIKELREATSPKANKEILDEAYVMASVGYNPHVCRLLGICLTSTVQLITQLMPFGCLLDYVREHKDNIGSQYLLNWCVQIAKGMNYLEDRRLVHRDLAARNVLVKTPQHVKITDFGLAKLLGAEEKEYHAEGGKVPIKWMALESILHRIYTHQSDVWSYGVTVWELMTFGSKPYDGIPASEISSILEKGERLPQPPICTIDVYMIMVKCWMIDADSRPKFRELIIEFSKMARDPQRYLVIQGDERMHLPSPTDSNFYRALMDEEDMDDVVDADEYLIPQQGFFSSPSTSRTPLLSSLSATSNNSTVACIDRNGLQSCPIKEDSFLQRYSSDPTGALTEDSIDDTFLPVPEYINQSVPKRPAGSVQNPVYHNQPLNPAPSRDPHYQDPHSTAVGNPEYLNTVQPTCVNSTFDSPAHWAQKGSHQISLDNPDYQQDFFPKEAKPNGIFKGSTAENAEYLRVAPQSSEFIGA

SMILES: C=CC(=O)Nc1cccc(N(C(=O)O[C@@H](C)c2ccc(F)cc2)c2ccnc(Nc3ccn(C)n3)n2)c1 [Compound I-16, (S)-1-(4-fluorophenyl)ethyl (3-acrylamidophenyl)(2-((1-methyl-1H-pyrazol-3-yl)amino)pyrimidin-4-yl)carbamate]
- EC50 [1]: < 100 nM
- EC50 [2]: 100 to 500 nM
- EC50 [3]: 500 to 1000 nM
- EC50 [4]: 100 to 500 nM
- EC50 [5]: < 100 nM
- EC50 [6]: 500 to 1000 nM

SMILES: C=CC(=O)Nc1cccc(N(C(=O)OCc2ccc(F)nc2)c2ccnc(Nc3cnn(C)c3)n2)c1 [Compound I-13, (6-fluoropyridin-3-yl)methyl (3-acrylamidophenyl)(2-((1-methyl-1H-pyrazol-4-yl)amino)pyrimidin-4-yl)carbamate]
- EC50 [1]: 100 to 500 nM
- EC50 [2]: > 1000 nM
- EC50 [3]: > 1000 nM
- EC50 [4]: > 1000 nM
- EC50 [5]: 100 to 500 nM
- EC50 [6]: > 1000 nM

SMILES: C=CC(=O)Nc1cccc(N(C(=O)O[C@@H](C)c2ccc(F)cc2)c2ccnc(Nc3cnn(C)c3)n2)c1 [Compound I-17, (S)-1-(4-fluorophenyl)ethyl (3-acrylamidophenyl)(2-((1-methyl-1H-pyrazol-4-yl)amino)pyrimidin-4-yl)carbamate]
- EC50 [1]: < 100 nM
- EC50 [2]: < 100 nM
- EC50 [3]: 100 to 500 nM
- EC50 [4]: < 100 nM
- EC50 [5]: < 100 nM
- EC50 [6]: < 100 nM

SMILES: C=CC(=O)Nc1cccc(N(C(=O)OCc2ccc(F)cn2)c2ccnc(Nc3cnn(C)c3)n2)c1 [Compound I-11, (5-fluoropyridin-2-yl)methyl (3-acrylamidophenyl)(2-((1-methyl-1H-pyrazol-4-yl)amino)pyrimidin-4-yl)carbamate]
- EC50 [1]: 100 to 500 nM
- EC50 [2]: 500 to 1000 nM
- EC50 [3]: > 1000 nM
- EC50 [4]: 500 to 1000 nM
- EC50 [5]: < 100 nM
- EC50 [6]: 500 to 1000 nM

SMILES: C=CC(=O)Nc1cccc(N(C(=O)OCc2ccc(Cl)cc2)c2ccnc(Nc3cnn(C)c3)n2)c1 [Compound I-9, 4-chlorobenzyl (3-acrylamidophenyl)(2-((1-methyl-1H-pyrazol-4-yl)amino)pyrimidin-4-yl)carbamate]
- EC50 [1]: < 100 nM
- EC50 [2]: 100 to 500 nM
- EC50 [3]: 500 to 1000 nM
- EC50 [4]: 100 to 500 nM
- EC50 [5]: < 100 nM
- EC50 [6]: 100 to 500 nM

SMILES: C=CC(=O)Nc1cccc(N(C(=O)O[C@H](C)c2ccc(F)cc2)c2ccnc(Nc3ccn(C)n3)n2)c1 [Compound I-14, (R)-1-(4-fluorophenyl)ethyl (3-acrylamidophenyl)(2-((1-methyl-1H-pyrazol-3-yl)amino)pyrimidin-4-yl)carbamate]
- EC50 [1]: 500 to 1000 nM
- EC50 [2]: 500 to 1000 nM
- EC50 [3]: > 1000 nM
- EC50 [4]: 500 to 1000 nM
- EC50 [5]: 100 to 500 nM

SMILES: C=CC(=O)Nc1cccc(N(C(=O)OCc2ccc(Cl)cc2)c2ccnc(Nc3ccn(C)n3)n2)c1 [Compound I-8, 4-chlorobenzyl (3-acrylamidophenyl)(2-((1-methyl-1H-pyrazol-3-yl)amino)pyrimidin-4-yl)carbamate]
- EC50 [1]: 100 to 500 nM
- EC50 [2]: > 1000 nM
- EC50 [3]: > 1000 nM
- EC50 [4]: 100 to 500 nM
- EC50 [5]: 100 to 500 nM
- EC50 [6]: > 1000 nM

SMILES: C=CC(=O)Nc1cccc(N(C(=O)OCc2ccc(F)nc2)c2ccnc(Nc3ccn(C)n3)n2)c1 [Compound I-12, (6-fluoropyridin-3-yl)methyl (3-acrylamidophenyl)(2-((1-methyl-1H-pyrazol-3-yl)amino)pyrimidin-4-yl)carbamate]
- EC50 [1]: 100 to 500 nM
- EC50 [2]: 500 to 1000 nM
- EC50 [3]: > 1000 nM
- EC50 [4]: 500 to 1000 nM
- EC50 [5]: 100 to 500 nM
- EC50 [6]: > 1000 nM

SMILES: C=CC(=O)Nc1cccc(N(C(=O)OCc2ccccc2)c2ccnc(Nc3ccn(C)n3)n2)c1 [Compound I-1, benzyl (3-acrylamidophenyl)(2-((1-methyl-1H-pyrazol-3-yl)amino)pyrimidin-4-yl)carbamate]
- EC50 [1]: < 100 nM
- EC50 [2]: < 100 nM
- EC50 [3]: 100 to 500 nM
- EC50 [4]: < 100 nM
- EC50 [5]: < 100 nM
- EC50 [6]: < 100 nM

SMILES: C=CC(=O)Nc1cccc(N(C(=O)O[C@H](C)c2ccc(F)cc2)c2ccnc(Nc3cnn(C)c3)n2)c1 [Compound I-15, (R)-1-(4-fluorophenyl)ethyl (3-acrylamidophenyl)(2-((1-methyl-1H-pyrazol-4-yl)amino)pyrimidin-4-yl)carbamate]
- EC50 [1]: < 100 nM
- EC50 [2]: < 100 nM
- EC50 [3]: 100 to 500 nM
- EC50 [4]: < 100 nM
- EC50 [5]: < 100 nM
- EC50 [6]: 100 to 500 nM

SMILES: C=CC(=O)Nc1cccc(N(C(=O)OCc2csc3ccccc23)c2ccnc(Nc3cnn(C)c3)n2)c1 [Compound I-19, benzo[b]thiophen-3-ylmethyl (3-acrylamidophenyl)(2-((1-methyl-1H-pyrazol-4-yl)amino)pyrimidin-4-yl)carbamate]
- EC50 [1]: 100 to 500 nM
- EC50 [2]: > 1000 nM
- EC50 [3]: > 1000 nM
- EC50 [4]: > 1000 nM
- EC50 [5]: 100 to 500 nM
- EC50 [6]: > 1000 nM

SMILES: C=CC(=O)Nc1cccc(N(C(=O)OCc2ccc(F)cc2)c2ccnc(Nc3cnn(C)c3)n2)c1 [Compound I-5, 4-fluorobenzyl (3-acrylamidophenyl)(2-((1-methyl-1H-pyrazol-4-yl)amino)pyrimidin-4-yl)carbamate]
- EC50 [1]: < 100 nM
- EC50 [2]: < 100 nM
- EC50 [4]: < 100 nM
- EC50 [5]: < 100 nM
- EC50 [6]: < 100 nM

SMILES: C=CC(=O)Nc1cccc(N(C(=O)OCc2ccc(F)cn2)c2ccnc(Nc3ccn(C)n3)n2)c1 [Compound I-10, (5-fluoropyridin-2-yl)methyl (3-acrylamidophenyl)(2-((1-methyl-1H-pyrazol-3-yl)amino)pyrimidin-4-yl)carbamate]
- EC50 [1]: 100 to 500 nM
- EC50 [2]: 100 to 500 nM
- EC50 [3]: 500 to 1000 nM
- EC50 [4]: 500 to 1000 nM
- EC50 [5]: < 100 nM
- EC50 [6]: 500 to 1000 nM
